The source of these data is patent US8962244B2, “Compounds for modulating RNA binding proteins and uses therefor” (University of Massachusetts, priority 2009, dated 2015).

The first experiment concerns the target T1, MEX-5 (Caenorhabditis elegans, UniProt Q9XUB2).
T1 construct: The fragment of mex-5 containing the TZF domain (amino acids 236-350) was amplified; made in house; host or cells: Escherichia coli JM109
T1 sequence (Q9XUB2 236-350): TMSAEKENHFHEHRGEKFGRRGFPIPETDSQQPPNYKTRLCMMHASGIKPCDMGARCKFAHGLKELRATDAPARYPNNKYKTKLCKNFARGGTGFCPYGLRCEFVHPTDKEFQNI
In words: Fluorescence polarization screening of MEX-5 binding to fluorescein-labeled TCR2 RNA. The following applies: 192 μM test compound; score = polarization relative to no-drug and no-protein controls; 0.25 = 75% inhibition; lowest score = greatest inhibition; read-out: MEX-5 score. From the text:
The expression and purification of recombinant MEX-5 protein has previously been described in Pagano, J. M., Farley, B. M., McCoig, L. M. and Ryder, S. P. (2007) “Molecular basis of RNA recognition by the embryonic polarity determinant MEX-5;” J Biol Chem; 282, 8883-8894. The fragment of mex-5 containing the TZF domain (amino acids 236-350) was amplified from a commercially available ORFeome clone (Open Biosystems) and sub-cloned into the vector pMal-c (NEB), which encodes maltose binding protein as an N-terminal fusion. This construct is termed pMal-MEX-5 (236-350).
MEX-5 is expressed in Escherchia. coli JM109 liquid cultures grown at 37° C. Cultures were induced during mid log phase by the addition of 0.1 mM isopropyl 1-thio-β-D-galactopyranoside (IPTG) and allowed to grow for three hours. An amount of 100 μM zinc acetate (final concentration) was added at the time of induction. The pelleted cells were resuspended in lysis buffer (50 mM Tris pH 8.8, 200 mM NaCl, 2 mM DTT, EDTA free protease inhibitor tablet (Roche), 100 μM Zn(OAc)2) and lysed by sonication. The soluble protein was purified in three steps using standard chromatography methods: (1) amylose affinity (NEB), (2) Hi-TRAP-Q (GE Healthcare), and (3) Hi-TRAP-S (GE Healthcare). The Q buffer was composed of 50 mM Tris, pH 8.8, 20 mM-1500 mM NaCl, 2 mM DTT, and 100 μM Zn(OAc)2. The S buffer was composed of 50 mM MOPS, pH 6.0, 20 mM-1500 mM NaCl, 2 mM DTT, 100 μM Zn(OAc)2. The pure fractions, determined by coomassie-stained SDS-PAGE, were dialyzed into storage buffer (20 mM Tris, pH 8.0, 25 mM NaCl, 100 μM Zn(OAc)2, 2 mM DTT). The protein concentration was determined by measuring absorbance at 280 nm and the calculated extinction coefficient. The protein was stored at 50 μM concentration at 4° C.
All RNA oligonucleotides were chemically synthesized by Dharmacon or Integrated DNA Technologies. Upon arrival, each RNA was deprotected and stored according to the manufacturer's instructions. Prior to use, the RNA was resuspended in 10 mM Tris-HCl, pH 8.0, 0.1 mM EDTA, and the concentration determined by UV spectrophotometry using the calculated extinction coefficient at 260 nm based on the specific sequence. The sequence of the MEX-5 binding RNA (TCR2) is […] (SEQ ID NO:1). The POS-1 binding RNA (BMF018) is […] (SEQ ID NO:2). The MEX-3 binding RNA (SEQ 14) is […] (SEQ ID NO:3).
The RNA used for the small molecule screen was labeled at the 3′-end with fluorescein by Dharmacon during synthesis. In a few cases, follow up experiments were performed with post-synthetically labeled RNA. In this case, fluorescein 5-thiosemicarbazide (FTSC, Invitrogen) was used to 3′-end label each RNA after treatment with sodium periodate (see Reines, S. A. and Cantor, C. R. (1974) “New fluorescent hydrazide reagents for the oxidized 3′-terminus of RNA” Nucleic Acids Res. 1, 767-786). A representative 50 μl reaction consisted of 0.5 nanomoles RNA, 100 mM NaOAc, pH 5.1, and 5 nanomoles NaIO4. After the reaction was complete (90 minutes at room temperature), the sample was ethanol precipitated by adding 1 μl RNase free glycogen (Invitrogen 20 μg/μl), 1/20th volume of 5 M NaCl, and 2 volumes of 100% ice-cold ethanol. The resulting pellet was resuspended in 50 μl of 100 mM NaOAc, pH 5.1 containing 1 mM FTSC and was allowed to react overnight at 4° C. in the dark. The unreacted label was removed by ethanol precipitation with resuspension of the pellet in a small volume of TE, and purification over a Roche G-25 size exclusion spin column. The labeling efficiency is determined by calculating the ratio of fluorescein absorbance at 490 nm to RNA-fluorescein absorbance at 260 nm. Typical efficiencies are 60-80%.
The ability of MEX-5 to associate with RNA was monitored by fluorescence polarization using a victor V3 or victor V2V plate reader (Perkin Elmer) in 384-well FluoTrak microplates (Grenier). […]
On the technique in general: Fluorescence polarisation rises when a labelled molecule tumbles more slowly, as on binding a larger partner.
On to `O=S(=O)(Nc1ccc(O)c(NS(=O)(=O)c2ccccc2)c1)c1ccccc1` [F], for which the remaining activity at 192 µM was -0.711%.

With `O=C1NN(c2cccc(Br)c2)C(=O)/C1=C\c1cccc(OC(=O)c2cccs2)c1` [BI], the remaining activity at 192 µM is 17.9%. Still for that read-out and setting: in the case of `Cc1n[nH]c(SCc2ccc(CSc3nc(C)n[nH]3)cc2)n1` [AA] it was 7.14%. The same measure, in the same setting: then `O=C(O)c1ccc(Sc2nnc(-c3cccc(Br)c3)o2)c([N+](=O)[O-])c1` [G], with -0.64%.

A further experiment concerns the target T2, POS-1 (Caenorhabditis elegans, UniProt G5EF15).
T2 construct: 6-his tag (N); made in house; host or cells: E. coli BL21 (DE3) Gold
T2 sequence (G5EF15 80-180): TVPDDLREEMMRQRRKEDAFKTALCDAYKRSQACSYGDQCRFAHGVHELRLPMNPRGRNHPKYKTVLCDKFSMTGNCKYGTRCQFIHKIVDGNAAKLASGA
The experiment is described as follows: Fluorescence polarization screening of POS-1 binding to fluorescein-labeled BMF018 RNA. The following applies: 192 μM test compound; score = polarization relative to no-drug and no-protein controls; 0.25 = 75% inhibition; lowest score = greatest inhibition; read-out: POS-1 score.
On to `O=S(=O)(Nc1ccc(O)c(NS(=O)(=O)c2ccccc2)c1)c1ccccc1` [F], for which the remaining activity at 192 µM is -2.79%. Still for that read-out and setting: then `O=C1NN(c2cccc(Br)c2)C(=O)/C1=C\c1cccc(OC(=O)c2cccs2)c1` [BI], with 10.6%; and `Cc1n[nH]c(SCc2ccc(CSc3nc(C)n[nH]3)cc2)n1` [AA], with 0.702%; and `O=C(O)c1ccc(Sc2nnc(-c3cccc(Br)c3)o2)c([N+](=O)[O-])c1` [G], with 24.2%. As for `CC(C)(C)c1ccc(C(=O)Nc2ccc(S(=O)(=O)Nc3nccs3)cc2)cc1Br` [EV], the remaining activity at 192 µM was found to be 27.5%.

As for `Sc1nnc(-c2cc(-c3ccccc3)nc3ccccc23)o1` [EM], the remaining activity at 192 µM came out at 24.2%. Still for that read-out and setting: in the case of `COc1ccc(S(=O)(=O)Nc2ccc(C)cc2NS(=O)(=O)c2ccc(OC)cc2)cc1` [DI] it was 11.9%.

On to `NC(=O)c1ccccc1NC(=O)CN(c1cccc(Br)c1)S(=O)(=O)c1ccccc1` [DC], for which the remaining activity at 192 µM stood at 7.5%. For `O=C(Nc1cc(NC(=O)c2ccccc2)cc(C(=O)Nc2ccc(O)cc2C(=O)O)c1)c1ccccc1` [DQ], the remaining activity at 192 µM came out at 17.2%.

On to `CCOc1ccc(C(=O)NC(=S)Nc2ccccc2C(=O)O)cc1Br` [DO], for which the remaining activity at 192 µM is 16.7%.

In the case of `COc1cc(/C=C2\C(=O)N(c3cccc(C(=O)O)c3)N=C2C)ccc1OC(=O)c1ccco1` [DX], the remaining activity at 192 µM came to 19.7%. On the same count and under the same terms, then `O=C(O)c1ccc(Cl)c(NC(=S)NC(=O)c2cc(I)ccc2Cl)c1` [EJ], with 23.4%. On the same count and under the same terms, then `CCCC(=O)NC(c1ccc(Cl)cc1)c1cc([N+](=O)[O-])c2cccnc2c1O` (stereo not shown) [EU], with 26.6%. Still for that read-out and setting: then `O=C(O)c1ccc(NC(=S)NC(=O)c2sc3ccccc3c2Cl)cc1` [CY], with 4.35%; and `CCCCC(=O)NC(c1ccccc1Cl)c1cc([N+](=O)[O-])c2cccnc2c1O` (stereo not shown) [ET], with 26.5%; and `CC(=O)Nc1nc2ccc(S(=O)(=O)NC(C)=O)cc2s1` [ED], with 22%. Take `O=C(NC1CCCCCC1)c1ccc(I)cc1` [CW]: the remaining activity at 192 µM was 3.98%.

For the compound `O=C(O)c1cccc(NC(=S)NC(=O)c2ccc(-c3ccc(Cl)cc3)o2)c1` [EI], the remaining activity at 192 µM stood at 23%. Consider `Cc1cc(NS(=O)(=O)c2ccc(NC(=O)c3ccc(C(C)(C)C)c(Br)c3)cc2)no1` [DP], for which the remaining activity at 192 µM stood at 16.8%. Same read-out and setting: then `CCCCOc1cccc(C(=O)Nc2ccc(S(=O)(=O)Nc3nnc(CC)s3)cc2)c1` [EP], with 26%; and `COC(=O)c1c(NC(=O)CCC(=O)O)sc2c1CCC(C(C)(C)C)C2` (stereo not shown) [DM], with 14.4%; and `Oc1ccccc1-c1n[nH]c(=S)n1Cc1ccccc1` [ES], with 26.5%. Consider `Cc1ccc(C)c(OCC(=O)Nc2ccc(S(=O)(=O)Nc3nccs3)cc2)c1C` [DW], for which the remaining activity at 192 µM came out at 19%. Still for that read-out and setting: in the case of `CCc1nnc(NS(=O)(=O)c2ccc(NCc3cc(Cl)cc(Cl)c3O)cc2)s1` [DH] it was 11.9%; in that of `CCOC(=O)c1c(NC(=O)C2CC=CCC2C(=O)O)sc(C)c1-c1ccc(Cl)cc1` (stereo not shown) [EA], 20.3%. Still for that read-out and setting: in the case of `O=C(NC(=S)Nc1ccccc1C(=O)O)c1cc(I)ccc1Cl` [DV] it was 18.5%; in that of `COc1c(Cl)cc(Cl)cc1C(=O)NC(=S)Nc1ccc(C(=O)O)cc1` [EQ], 26%.

In the case of `Cc1cc(NS(=O)(=O)c2ccc(Nc3nc(-c4ccc(F)c(C)c4)cs3)cc2)no1` [EN], the remaining activity at 192 µM was determined as 24.7%. Same read-out and setting: in the case of `CC1=NN(c2ccc(Cl)c(C(=O)O)c2)C(=O)/C1=C/c1cccc(OC(=O)c2cccs2)c1` [DB] it was 6.9%. On the same count and under the same terms, in the case of `Cc1cc(OCC(=O)Nc2ccc(S(=O)(=O)Nc3nccs3)cc2)ccc1Br` [DT] it was 17.7%; in that of `O=[N+]([O-])c1cc(C2Nc3ccc4ccccc4c3C3C=CCC32)ccc1O` (stereo not shown) [DE], 8.86%.

Turning to `COc1cc(/C=C2/C(=O)N(c3ccc(Cl)c(C(=O)O)c3)N=C2C)ccc1OC(=O)c1cccs1` [DF], the remaining activity at 192 µM was 10.1%. The same measure, in the same setting: then `Cc1ccc(CC(=O)Nc2ccc(S(=O)(=O)Nc3nccs3)cc2)cc1` [EK], with 23.7%.

With `CCOC(=O)c1ccc(N2NC(=O)/C(=C/c3ccc(OC(=O)c4ccco4)c(OC)c3)C2=O)cc1` [DR], the remaining activity at 192 µM stood at 17.2%. Same read-out and setting: then `O=S(=O)(NCc1nc2ccccc2[nH]1)c1ccc(Cl)cc1` [EC], with 21.7%.

Regarding `CCOC(=O)c1ccc(N2NC(=O)/C(=C/c3ccc(OC(=O)c4cccs4)c(OC)c3)C2=O)cc1` [EW], the remaining activity at 192 µM was found to be 27.5%. On the same count and under the same terms, in the case of `O=C(NC(=S)Nc1ccc(Cl)c(C(=O)O)c1)c1ccc(-c2ccccc2)cc1` [EH] it was 23%; in that of `CCOc1ccc(C(=O)NC(=S)Nc2ccc(C(=O)O)c(Cl)c2)cc1Br` [DK], 14.3%; in that of `O=C(NC(=S)Nc1ccccc1C(=O)O)c1ccc(-c2ccc(Cl)cc2)o1` [EO], 25.4%. The same measure, in the same setting: then `COc1cc(-c2n[nH]c(=S)[nH]2)cc(OC)c1OC` [DU], with 18%; and `CC1=NN(c2ccc(S(N)(=O)=O)cc2)C(=O)/C1=C\c1ccc(OC(=O)c2cccs2)cc1` [DN], with 16.7%.

On to `O=C(NC(=S)Nc1ccc(C(=O)O)c(Cl)c1)c1ccc(Cl)c(Cl)c1` [DZ], for which the remaining activity at 192 µM was 20.1%.

In the case of `COc1ccc(N2CC(C(=O)Nc3ccc(S(=O)(=O)Nc4nccs4)cc3)CC2=O)cc1` (stereo not shown) [DA], the remaining activity at 192 µM was determined as 6.51%. Consider `Cc1ccc2c(Cl)c(C(=O)Nc3nnn[nH]3)sc2c1` [EL], for which the remaining activity at 192 µM worked out at 23.8%. On the same count and under the same terms, in the case of `O=C1NN(c2ccc(Cl)c(Cl)c2)C(=O)/C1=C/c1cccc(OC(=O)c2cccs2)c1` [EG] it was 22.9%; in that of `O=C1NN(c2ccc(F)c(Cl)c2)C(=O)/C1=C\c1cccc(OC(=O)c2cccs2)c1` [CX], 4.3%; in that of `C#CCSc1nc2sc3c(c2c(=O)n1C)CCC3` [EB], 21%. Still for that read-out and setting: in the case of `Cc1c(C(=O)NC(=S)Nc2cc(C(=O)O)ccc2Cl)cccc1[N+](=O)[O-]` [ER] it was 26.2%.
